Data set [1] deals with HBV (HepG2.117 cell line, inducibly HBV producing). Put plainly: Anti-HBV activity: intracellular HBV DNA by real-time PCR in HepG2.117 cells after 3 days of treatment. The format is cell-based, hepatitis B virus. Put shortly: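 Readout is intracellular HBV DNA, measured by real-time PCR with HBV-specific primers and probe after 3 days of exposure to serial compound dilutions. Cells are the stable HepG2.117 line, where HBV replication is induced in the absence of doxycycline.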
(In general: Real-time PCR tracks product formation cycle by cycle.)

A short description of data set [2]: in vitro. The format is cell-based. The settings on record: human, HepG2 or HepG2.117 cells, mean value. The method, boiled down: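 Luminescent ATP quantitation served as the viability endpoint following a 3- or 4-day incubation with test compounds.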
The mark [3] stands for this setting: Hepatitis B virus, HepG2.117, 72 h, HepG2.117 cells, intracellular HBV DNA by real-time PCR, 3 days of treatment, mean value; read-out: EC50 (μM, mean value).
Setting [4] is: ATPlite, 3-days incubation (not marked with *).
Setting [5] is: Hepatitis B virus, HepG2.117, 72 h, HepG2.117 cells, 3 days of treatment, intracellular HBV DNA by real-time PCR; mean value; read-out: EC50 (μM, mean value).
Setting [6] is: 3-days incubation (unmarked values), ATPlite.

Structures are written as SMILES. Where two headings read alike, the source gives them in different places.

The text below walks through data of US20230091047A1 (priority 2019, published 2023).

On to `CNC(=O)c1ccc(-n2c(NC(C)Cn3cncn3)nc3c(c2=O)C[C@@H](C)N(C(=O)c2ccc(Cl)c(Cl)c2)C3)cc1` (stereo partly drawn) [Compound C540], for which the EC50 in data set [1] (setting [3]) was 15.8 µM. This compound also had a CC50 at 3 days in data set [2] (setting [4]) of over 50 µM.

For `COc1ccc(CN(c2nc3c(c(=O)n2-c2ccc(Br)cc2)C[C@@H](C)N(C(=O)c2ccc(Cl)c(Cl)c2)C3)C(C)C)c(OC)c1` [Compound C691], in data set [1] (setting [3]), the EC50 turned out to be 2.45 µM. For the same compound, in data set [2] (setting [4]), the CC50 at 3 days is over 50 µM.

As for `CNC(=O)c1ccc(-n2c(NCc3cccc(-c4nccn4C)c3)nc3c(c2=O)C[C@@H](C)N(C(=O)c2ccc(Cl)c(Cl)c2)C3)cc1` [Compound C488], the EC50 in data set [1] (setting [3]) was determined as 7.31 µM. In data set [2] (setting [4]), this compound displayed a CC50 at 3 days of 28.2 µM.

As for `CNC(=O)c1ccc(-n2c(NC(C)C)nc3c(c2=O)C[C@@H](C)N(C(=O)c2cc4cc(Cl)ccc4s2)C3)cc1` [Compound C579], the EC50 in data set [1] (setting [3]) was found to be 0.12 µM. The compound further returned a CC50 at 3 days in data set [2] (setting [4]) of over 50 µM.

Turning to `COc1ccc(CNc2nc3c(c(=O)n2-c2ccc(Br)cc2)CCN(C(=O)c2ccc(Cl)c(Cl)c2)C3)cc1` [Compound C125, 3-(4-bromophenyl)-7-(3,4-dichlorobenzoyl)-2-{[(4-methoxyphenyl)methyl]amino}-5,6,7,8-tetrahydropyrido[3,4-d]pyrimidin-4(3H)-one], the concentration giving a half-maximal response (EC50) in data set [1] (setting [5]) was 1.64 µM. Moreover, the CC50 at 3 days in data set [2] (setting [6]) was over 50 µM.

Turning to `CNC(=O)c1ccc(-n2c(N3CC[C@H]3C)nc3c(c2=O)C[C@@H](C)N(C(=O)c2ccc(Cl)c(Cl)c2)C3)cc1` (single isomer, unassigned) [Compound C311, 4-[(6R)-7-(3,4-dichlorobenzoyl)-6-methyl-2-[(2*R)-2-methylazetidin-1-yl]-4-oxo-5,6,7,8-tetrahydropyrido[3,4-d]pyrimidin-3(4H)-yl]-N-methylbenzamide], in data set [1] (setting [5]), the EC50 was found to be 0.09 µM. This compound displayed a CC50 at 3 days in data set [2] (setting [6]) of over 50 µM.

Take `CC(C)Nc1nc2c(c(=O)n1-c1ccc(NC3COC3)cc1)C[C@@H](C)N(C(=O)c1ccc(Cl)c(Cl)c1)C2` [Compound C190, (6R)-7-(3,4-dichlorobenzoyl)-6-methyl-3-{4-[(oxetan-3-yl)amino]phenyl}-2-[(propan-2-yl)amino]-5,6,7,8-tetrahydropyrido[3,4-d]pyrimidin-4(3H)-one]: the concentration giving a half-maximal response (EC50) in data set [1] (setting [5]) turned out to be 0.18 µM. For the same compound, in data set [2] (setting [6]), the CC50 at 3 days is over 50 µM.

For the compound `CC(C)Nc1nc2c(c(=O)n1C1CCS(=O)(=O)CC1)CCN(C(=O)c1ccc(Cl)c(Cl)c1)C2` [Compound C120, 4-[7-(3,4-dichlorobenzoyl)-4-oxo-2-[(propan-2-yl)amino]-5,6,7,8-tetrahydropyrido[3,4-d]pyrimidin-3(4H)-yl]-1λ^6-thiane-1,1-dione], the concentration for a half-maximal effect (EC50) in data set [1] (setting [5]) is 7.36 µM. Moreover, in data set [2] (setting [6]), the half-maximal cytotoxic concentration (CC50) at 3 days was over 50 µM.

On to `COc1ccccc1-n1c(NCc2ccc(Cl)cc2Cl)nc2c(c1=O)CCN(C(=O)c1ccc(Cl)c(Cl)c1)C2` [Compound C30, 7-(3,4-dichlorobenzoyl)-2-{[(2,4-dichlorophenyl)methyl]amino}-3-(2-methoxyphenyl)-5,6,7,8-tetrahydropyrido[3,4-d]pyrimidin-4(3H)-one], for which the EC50 in data set [1] (setting [5]) is over 50 µM. In data set [2] (setting [6]), this compound returned a CC50 at 3 days of over 50 µM.

For `CNC(=O)c1ccc(-n2c(NC3CC3(C)C)nc3c(c2=O)C[C@@H](C)N(C(=O)c2ccc(Cl)c(Cl)c2)C3)cc1` (stereo partly drawn) [Compound C333, 4-[(6R)-7-(3,4-dichlorobenzoyl)-2-[(2,2-dimethylcyclopropyl)amino]-6-methyl-4-oxo-5,6,7,8-tetrahydropyrido[3,4-d]pyrimidin-3(4H)-yl]-N-methylbenzamide], the EC50 in data set [1] (setting [5]) was 1.64 µM. This compound also had a 50% cytotoxic concentration (CC50) at 3 days in data set [2] (setting [6]) of over 43 µM.

As for `CNC(=O)c1ccc(-n2c(Nc3cn(C)nn3)nc3c(c2=O)C[C@@H](C)N(C(=O)c2ccc(Cl)c(Cl)c2)C3)cc1` [Compound C421], in data set [1] (setting [3]), the EC50 is over 8.1 µM. In data set [2] (setting [4]), this compound showed a CC50 at 3 days of over 50 µM.

Take `CNC(=O)c1ccc(-n2c(N[C@H](C)c3ccc4[nH]ncc4c3)nc3c(c2=O)C[C@@H](C)N(C(=O)c2ccc(Cl)c(Cl)c2)C3)cc1` (single isomer, unassigned) [Compound C529a]: the concentration for a half-maximal effect (EC50) in data set [1] (setting [3]) was determined as 0.16 µM. In addition, the CC50 at 3 days in data set [2] (setting [4]) is over 50 µM.

With `CNC(=O)c1ccc(-n2c(N[C@@H](C)c3ccc(C#N)cc3)nc3c(c2=O)C[C@@H](C)N(C(=O)c2ccc(Cl)c(Cl)c2)C3)cc1` (single isomer, unassigned) [Compound C441b], in data set [1] (setting [3]), the 50% effective concentration (EC50) is 2.75 µM. In addition, in data set [2] (setting [4]), the cytotoxic concentration (CC50) at 3 days is over 50 µM.

In the case of `CC(C)Nc1nc2c(c(=O)n1-c1ccc(-c3nn[nH]n3)cc1)C[C@@H](C)N(C(=O)c1ccc(Cl)c(Cl)c1)C2` [Compound C453], the 50% effective concentration (EC50) in data set [1] (setting [3]) is 5.81 µM. This compound also displayed a cytotoxic concentration (CC50) at 3 days in data set [2] (setting [4]) of over 50 µM.

Turning to `COc1ccc(CN(CCO)c2nc3c(c(=O)[nH]2)CCN(C(=O)c2ccc(Cl)c(Cl)c2)C3)cc1` [Compound C91, 7-(3,4-dichlorobenzoyl)-2-{(2-hydroxyethyl)[(4-methoxyphenyl)methyl]amino}-5,6,7,8-tetrahydropyrido[3,4-d]pyrimidin-4(3H)-one], the concentration for a half-maximal effect (EC50) in data set [1] (setting [5]) came to 8.92 µM. Further, half-maximal cytotoxicity in data set [2] (setting [6]) (CC50 at 3 days) was put at 22.2 µM.

Turning to `COc1ccccc1-n1c(NCc2cscn2)nc2c(c1=O)CCN(C(=O)c1ccc(Cl)c(Cl)c1)C2` [Compound C16, 7-(3,4-dichlorobenzoyl)-3-(2-methoxyphenyl)-2-{[(1,3-thiazol-4-yl)methyl]amino}-5,6,7,8-tetrahydropyrido[3,4-d]pyrimidin-4(3H)-one], in data set [1] (setting [5]), the EC50 stood at 2.29 µM. Moreover, the half-maximal cytotoxic concentration (CC50) at 4 days in data set [2] (4-days incubation (values marked with *), ATPlite) worked out at 45.3 µM.

In the case of `CCOC(=O)c1ccc(-n2c(NC(C)C)nc3c(c2=O)C[C@@H](C)N(C(=O)c2ccc(Cl)c(Cl)c2)C3)cc1` [Compound C153, ethyl 4-[(6R)-7-(3,4-dichlorobenzoyl)-6-methyl-4-oxo-2-[(propan-2-yl)amino]-5,6,7,8-tetrahydropyrido[3,4-d]pyrimidin-3(4H)-yl]benzoate], the EC50 in data set [1] (setting [5]) came to 0.75 µM. The compound also came in with a CC50 at 3 days in data set [2] (setting [6]) of over 50 µM.

Consider `CC(C)NC(=O)c1cnc(-n2c(NC(C)C)nc3c(c2=O)C[C@@H](C)N(C(=O)c2ccc(Cl)c(C(F)(F)F)c2)C3)cn1` [Compound C694], for which the EC50 in data set [1] (setting [5]) stood at 0.05 µM. In data set [2] (3-days incubation (unmarked values), ATPlite viability), this compound returned a cytotoxic concentration (CC50) at 3 days of over 50 µM.

`COc1ccccc1-n1c(NCc2ccc(F)cc2F)nc2c(c1=O)CCN(C(=O)c1ccc(Cl)c(Cl)c1)C2` [Compound C29, 7-(3,4-dichlorobenzoyl)-2-{[(2,4-difluorophenyl)methyl]amino}-3-(2-methoxyphenyl)-5,6,7,8-tetrahydropyrido[3,4-d]pyrimidin-4(3H)-one]: in data set [1] (setting [5]), the concentration for a half-maximal effect (EC50) was 7.43 µM. Besides, the CC50 at 3 days in data set [2] (setting [6]) was found to be 23.3 µM.

As to `CNC(=O)c1ccc(-n2c(NCC3(C)CC3)nc3c(c2=O)C[C@@H](C)N(C(=O)c2ccc(Cl)c(Cl)c2)C3)cc1` [Compound C381], the half-maximal effective concentration (EC50) in data set [1] (setting [3]) stood at 0.95 µM. In addition, the half-maximal cytotoxic concentration (CC50) at 3 days in data set [2] (setting [4]) was 31.8 µM.

With `CNc1noc2cc(-n3c(NC(C)C)nc4c(c3=O)C[C@@H](C)N(C(=O)c3ccc(Cl)c(Cl)c3)C4)ccc12` [Compound C305, (6R)-7-(3,4-dichlorobenzoyl)-6-methyl-3-[3-(methylamino)-1,2-benzoxazol-6-yl]-2-[(propan-2-yl)amino]-5,6,7,8-tetrahydropyrido[3,4-d]pyrimidin-4(3H)-one], the EC50 in data set [1] (setting [5]) came out at 0.07 µM. In data set [2] (setting [6]), this compound showed a half-maximal cytotoxic concentration (CC50) at 3 days of over 50 µM.

Turning to `CNC(=O)c1ccc(-n2c(N[C@H]3CCOc4cc(OC)ccc43)nc3c(c2=O)C[C@@H](C)N(C(=O)c2ccc(Cl)c(Cl)c2)C3)cc1` (single isomer, unassigned) [Compound C527b], the 50% effective concentration (EC50) in data set [1] (setting [3]) is 0.65 µM. Besides, the half-maximal cytotoxic concentration (CC50) at 3 days in data set [2] (setting [4]) is over 50 µM.

On to `COc1ccc([C@H](C)Nc2nc3c(c(=O)n2-c2ccc(NC(C)=O)cc2)C[C@@H](C)N(C(=O)c2ccc(Cl)c(Cl)c2)C3)cc1` (single isomer, unassigned) [Compound C410b], for which the concentration giving a half-maximal response (EC50) in data set [1] (HepG2.117 cells, intracellular HBV DNA by real-time PCR, 3 days of treatment, mean value; read-out: EC50 (μM, mean value)) amounted to 0.11 µM. The CC50 at 3 days in data set [2] (setting [4]) is over 50 µM.

For the compound `CC(C)Nc1nc2c(c(=O)n1-c1ccc(N3CCOCC3)cc1)CCN(C(=O)c1ccc(Cl)c(Cl)c1)C2` [Compound C130, 7-(3,4-dichlorobenzoyl)-3-[4-(morpholin-4-yl)phenyl]-2-[(propan-2-yl)amino]-5,6,7,8-tetrahydropyrido[3,4-d]pyrimidin-4(3H)-one], the EC50 in data set [1] (setting [5]) amounted to 0.48 µM. This compound also displayed a 50% cytotoxic concentration (CC50) at 3 days in data set [2] (setting [6]) of over 50 µM.

Regarding `CNC(=O)c1ccc(-n2c(N[C@H](C)c3ccc(F)c(OC)c3)nc3c(c2=O)C[C@@H](C)N(C(=O)c2ccc(Cl)c(Cl)c2)C3)cc1` (single isomer, unassigned) [Compound C435a], in data set [1] (setting [3]), the EC50 turned out to be 0.1 µM. For the same compound, the half-maximal cytotoxic concentration (CC50) at 3 days in data set [2] (setting [4]) was 26.4 µM.

Take `CNC(=O)c1ccc(-n2c(N[C@@H](c3ccccc3)C3CC3)nc3c(c2=O)C[C@@H](C)N(C(=O)c2ccc(Cl)c(Cl)c2)C3)cc1` (single isomer, unassigned) [Compound C342, 4-[(6R)-2-{[(*R)-cycopropyl(phenyl)methyl]amino}-7-(3,4-dichlorobenzoyl)-6-methyl-4-oxo-5,6,7,8-tetrahydropyrido[3,4-d]pyrimidin-3(4H)-yl]-N-methylbenzamide]: the EC50 in data set [1] (setting [5]) turned out to be 0.37 µM. This compound gave a CC50 at 3 days in data set [2] (setting [6]) of 16 µM.

Consider `C[C@@H]1Cc2c(nc(NCc3ccncn3)n(-c3ccc(S(C)(=O)=O)cc3)c2=O)CN1C(=O)c1ccc(Cl)c(Cl)c1` [Compound C150, (6R)-7-(3,4-dichlorobenzoyl)-3-[4-(methanesulfonyl)phenyl]-6-methyl-2-{[(pyrimidin-4-yl)methyl]amino}-5,6,7,8-tetrahydropyrido[3,4-d]pyrimidin-4(3H)-one], for which the half-maximal effective concentration (EC50) in data set [1] (setting [5]) was found to be 5.44 µM. This compound displayed a half-maximal cytotoxic concentration (CC50) at 3 days in data set [2] (setting [6]) of over 50 µM.

What is called EC50 is the concentration that produces a half-maximal response. Broadly, the CC50 is the concentration giving 50% cytotoxicity. A high value points to lower toxicity to the cells.
